Data on 4 compounds can be found in patent US11864555B2, “Soil application of crop protection agents” (PIONEER HI-BRED INTERNATIONAL, INC., priority 2017, dated 2024).

SMILES strings stand for the structures.

Data set [1] is classed as in vivo, soybean. The note with it: delivered via the CRYSTAL GREEN particles. Here is the method:
The procedure used for Bead #1 was repeated, using CRYSTAL GREEN® fertilizer and the pesticide used was 50% chlorantraniliprole insecticide treatment. Analysis of the amount of chlorantraniliprole for Bead #14 was determined to be 2.15 μg chlorantraniliprole per milligram of bead. Individual rhizotron growth chambers were used as the test apparatus as described before. Beads #13 and 14, or the control solutions were applied to the center area of the soil plug at about 4 mm depth. All the rhizotron chambers were then transferred to the growth room and fit to black utility boxes with precut 4-inch-depth notches located on the left and right rim of the boxes, allowing the chambers to set at about 90 degree upright position. […]
The rhizotrons were maintained in a growth chamber with controlled temperature and light with a 14-hour day/10-hour night diurnal cycle. […] The amount of water or nutrient used was recorded. Plant growth stages were also recorded and photographed periodically. […]
Plant leaflets were harvested 3 times at 24 days (R1 growth stage), 38 days (R4), and 49 days (R5.5) after planting for quantifying the pesticide concentrations. […] Each CPC was quantified by LC-MSMS method using electro-spray positive ionization mode. […] Remaining soil associated with the dried roots was removed and root weight was measured using an analytical balance.

Data set [2] is described as follows: Aerobic soil degradation of cyantraniliprole in Tama soil. It counts as physicochemical. Here is the method: Aerobic soil degradation of cyantraniliprole in the various beads was determined versus a stock aqueous solution by following the changes in cyantraniliprole concentration over time.
Tama soil (clay-loam soil) was collected and stored in a refrigerator prior to use. […] Soil (10.0 to 68.3 grams) was weighted into glass jars or polypropylene vials and the moisture content was adjusted to 32.4% (Field capacity for this soil) by adding deionized water to the containers. The containers were covered with tape and pre-incubated inside a temperature controlled incubator at 25° C. for 4 days. […] The incubator temperature was monitored by a digital thermometer, and soil water loss was monitored by weighing each sample container during the experiment. […]
At sampling intervals of 0, 3, 7, 14, 21, 28, 35, 56, 100 and 120 days, three containers from each treatment were removed from the incubator, and the four cyantraniliprole-containing particles or pellets in each container were collected and transferred to 100 mL polypropylene bottles for extraction. […] After the overnight extraction, the extracts were allowed to settle and the supernatant was filtered through 0.4 μm pore size polypropylene filters and stored in a −20° C. freezer before quantifying cyantraniliprole. […]

Data set [3] in a line: Aerobic soil degradation of cyantraniliprole in loam soil. The note with it: 90 days, pH 5.7. It is filed as physicochemical. Here is the method: Loam soil had 29% sand, 50% silt, and 21% clay with 2.9% organic matter and a pH of 5.7. […] Soil (20.0 to 50 g) was weighed into individual glass containers and moisture was adjusted to field moisture capacity at approximately 27% by weight by adding de-ionized water to the containers. Afterward, the containers were covered with breathable tape and pre-incubated inside a temperature-controlled incubator at 25° C. for 6 days. The tape allowed free oxygen exchange between the container headspace and ambient air while minimizing soil water loss due to evaporation. […] The incubator temperature was monitored by a digital thermometer and Hobo data logger, and soil water loss was monitored by weighing each sample container during the experiment. […] Soil moisture content was brought back to field capacity once every 1-2 weeks by adding de-ionized water equivalent to the amount of moisture that was lost, monitored by weighing each container every week.
At sampling intervals of 0, 3, 7, 14, 28, 56 and 90 days, three containers from each treatment were removed from the incubator, and the 5 cyantraniliprole-containing particles were collected and transferred to 100 mL polypropylene bottles for extraction. […] Cyantraniliprole was separated by HPLC and quantified by UV detection at 220 nm using an external calibration curve of an analytical standard.

The conditions of data set [4]: cited from earlier work.

As for `CNC(=O)c1cc(Cl)cc(C)c1NC(=O)c1cc(Br)nn1-c1ncccc1Cl` [Chlorantraniliprole], the “concentrations in leaf samples averaged from 24 to 49 days” value in data set [1] stood at 0.097 μg/gram fresh leaves. As for `CNC(=O)c1cc(C#N)cc(C)c1NC(=O)c1cc(Br)nn1-c1ncccc1Cl` [stock solution, cyantraniliprole], the “cyantraniliprole degraded by day 100” value in data set [2] (100 days, pH 5.8) is recorded as around 76%. Besides, in data set [2] (Tama soil, 25° C., aerobic), the “half-life of biodegradation by soil microbes” value is “approximately 43 days”. For the compound `CNC(=O)c1cc(C#N)cc(C)c1NC(=O)c1cc(Br)nn1-c1ncccc1Cl` [Control E, Cyantraniliprole], in data set [3], the “cyantraniliprole degraded by day 90” value is listed as around 79%.

For `CO/C=C(/C(=O)OC)c1ccccc1COc1cccc(C(F)(F)F)n1` [Picoxystrobin], the water solubility in data set [4] is on record as 3.25 milligrams/liter.
